Results: patent US5808040A, “L-nucleosides incorporated into polymeric structure for stabilization of oligonucleotides” (priority 1997, dated 1998)

Tests used:
EBV = experiment: Inhibitory effect on EBV in H1 cells, bioassay by EBV DP activity in superinfected Raji cells; format: cell-based, Epstein-Barr virus; conditions: EBV ID90 vs H1 cell CD50
Procedure: (§1) H1 cells were maintained in […] growth for two days prior to the initiation of treatment. The cells were centrifuged at 600 g for 10 min. at room temperature to separate them from the medium containing pre-existing virus particles. The H1 cells were seeded in 24 well plates at a density of 1×10^5 cells per well in 2 ml of fresh medium with or without drug and incubated at 37° C. for 5 days. The medium containing virion was saved and used for evaluating the inhibitory effect of drugs on virus production and infectivity by use of a bioassay. The virion were pelleted from the cell free medium by centrifugation at 45,000 rpm for 90 min. in a SW-50 Ti rotor (Beckman). The virion were resuspended in 1 ml growth medium and then used to infect 1×10^6 Raji cells for 48 hours. Since the level of EBV DP activity in Raji cells post superinfection is proportional to the number of virions added, the EBV specific DP activity induced was able to be measured. The inhibitory drug effect was calculated by comparing the EBV DP activity to multiple dilution controls.
and compared with controls. Hl cells were treated for 5 days and the
ID90 was determined by bioassay.

H1 cells = experiment: Cytotoxicity in H1 cells (72 hours, cell count); format: cell-based; conditions: summary statement, cells not specified
Procedure: Inhibitory effect of compounds on EBV: The CD50 was performed by
exposing Hl cells to different concentrations of the compounds in normal
growth medium at 37° C. for 72 hours; the cells were then counted
and compared with controls. Hl cells were treated for 5 days and the […]

mitochondrial DNA = experiment: Mitochondrial DNA content in H1 cells (slot blot assay); format: cell-based, human; conditions: 1 mM, 6 days
Procedure: as §1
Slot Blot Assay--The amount of mitochondrial DNA was measured by the slot blot method (2). […] The amount of mitochondrial DNA in the treated and non-treated H1 cells was quantified by densitometer (LKB Ultroscan XL).

[1] = Clearance of L-(-)-FMAU from plasma and liver of mice after oral administration; format: in vivo, mouse
Procedure: The clearance of L-(-)-FMAU from the plasma and liver of mice after oral administration was evaluated. Mice were […] with L-(-)-FMAU which was tritium labeled (radiospecificity of […]).
FIG. 11 is a graph of the plasma concentration of L-(-)-FMAU in mice after oral administration 10 over time, and FIG. 12 is a graph of the concentration of L-(-)-FMAU in mouse liver after oral administration over time (cross, 10 mg/kg administered bid (bi-daily) for 30 days prior to pharmacokinetic study and then study carried out on day thirty one on administration of same concentration; dark circle, 50 mg/kg administered bid for 30 days prior to study and then study carried out on day thirty one on administration of same concentration; open circle, 50 mg/kg administered for the first time on the first day of the study).
At the times indicated (see FIGS. 10 and 11) the mice were bled from their retro-orbital sinus using heparinized capillaries. The plasma was extracted with trichloroacetic acid and neutralized with freon/trioctylamine. Supernatants were directly counted and the concentration calculated.

[2] = Toxicity in BDF1 female mice, change in body weight over thirty days; format: in vivo, mouse
Procedure: FIG. 13a illustrates the change in body weight over thirty days of control BDF1 female mice. FIGS. 13b and 13c illustrate the change in body weight over thirty days of BDF1 female mice dosed with 10 mg/kg (13b) and 50 mg/kg (13c) bid of L-(-)-FMAU. The body weight presented represents the mean and standard deviation of that of five to seven mice.

[3] = Clinical chemistry of mouse plasma after L-(-)-FMAU treatment; format: in vivo; conditions: 10 or 50 mg/kg bid for thirty days
Procedure: FIGS. 14-20 provide the clinical chemistry of mouse plasma after administration of L-(-)-FMAU at 10 mg/kg (three mice) or 50 mg/kg (three mice) bid for thirty days.

[4] = with the exception of mouse 50-2

O=c1[nH]c(=O)n([C@@H]2O[C@H](CO)[C@@H](O)[C@@H]2F)cc1I [D-FIAU]
Therapeutic Index (CD50 /ID90) (EBV): 40

O=c1[nH]c(=O)n([C@H]2O[C@@H](CO)[C@H](O)[C@H]2F)cc1I [L-FIAU, 2'-fluoro-5-iodo-β-L-arabinofuranosyluridine]
Therapeutic Index (CD50 /ID90) (EBV): 12

Nc1nc(=O)n([C@@H]2O[C@H](CO)[C@@H](O)[C@@H]2F)cc1I [D-FIAC]
Therapeutic Index (CD50 /ID90) (EBV): 25

CCc1cn([C@H]2O[C@@H](CO)[C@H](O)[C@H]2F)c(=O)[nH]c1=O [L-FEAU, 2'-fluoro-5-ethyl-β-L-arabinofuranosyluridine]
Therapeutic Index (CD50 /ID90) (EBV): 15

Cc1cn([C@@H]2O[C@H](CO)[C@@H](O)[C@@H]2F)c(=O)[nH]c1=O [D-FMAU]
Therapeutic Index (CD50 /ID90) (EBV): 50

Nc1nc2c(ncn2CCC(CO)CO)c(=O)[nH]1 [PCV]
Therapeutic Index (CD50 /ID90) (EBV): 25

O=C(O)P(=O)(O)O [PFA]
Therapeutic Index (CD50 /ID90) (EBV): 16

Nc1nc(=O)n([C@H]2O[C@@H](CO)[C@H](O)[C@H]2F)cc1I [L-FIAC, 2'-fluoro-5-iodo-β-L-arabinofuranosylcytosine]
Therapeutic Index (CD50 /ID90) (EBV): > 40

CCc1cn([C@@H]2O[C@H](CO)[C@@H](O)[C@@H]2F)c(=O)[nH]c1=O [D-FEAU]
Therapeutic Index (CD50 /ID90) (EBV): 2000

Nc1nc2c(ncn2COCCO)c(=O)[nH]1 [ACV]
Therapeutic Index (CD50 /ID90) (EBV): 20

Cc1cn([C@H]2O[C@@H](CO)[C@H](O)[C@H]2F)c(=O)[nH]c1=O [L-FMAU, 2'-fluoro-5-methyl-β-L-arabinofuranosyluridine]
cytotoxicity (in words) (H1 cells): low cytotoxicity
Therapeutic Index (CD50 /ID90) (EBV): 200
inhibition of mitochondrial DNA content in H1 cells (mitochondrial DNA): No inhibition
time of peak concentration in liver ([1]; 10 or 50 mg/kg, liver): approximately one
clearance from liver ([1]; liver): substantially cleared from both plasma and liver after four hours
clearance from plasma ([1]; plasma): substantially cleared from both plasma and liver after four hours
tolerability ([2]; BDF1 female mice, 10 and 50 mg/kg bid, thirty days): well tolerated
change in body weight ([2]; mouse, in vivo): did not appear to significantly affect the weight of the mice over thirty days
lactic acid in mouse plasma [3]: not significantly different from those of the control mice
lactic dehydrogenase in mouse plasma [3]: not significantly different from those of the control mice
total bilirubin in mouse plasma [3]: fall within the normal human range (less than 1.2 mg/dL)
alkaline phosphatase in mouse plasma ([3]; normal human level 30-114 U/L): somewhat higher than the normal human level
ALT (SGPT) in mouse plasma [3, 4]: not different from those of the control mice
creatinine in mouse plasma [3, 4]: not different from those of the control mice
AST (SGOT) in mouse plasma ([3]; with the exception of mouse 50-2 and mouse 10-2): not different from those of the control mice

Nc1nc2c(ncn2COC(CO)CO)c(=O)[nH]1 [DHPG]
Therapeutic Index (CD50 /ID90) (EBV): 15
